Results taken from BindingDB's records for doi:10.3109/14756369709035812 (Universite Paul Sabatier, 1997).

Biological target: T1, Hexokinase-1 (Saccharomyces cerevisiae (strain ATCC 204508 / S288c), UniProt P04806)
T1 sequence (P04806 whole entry): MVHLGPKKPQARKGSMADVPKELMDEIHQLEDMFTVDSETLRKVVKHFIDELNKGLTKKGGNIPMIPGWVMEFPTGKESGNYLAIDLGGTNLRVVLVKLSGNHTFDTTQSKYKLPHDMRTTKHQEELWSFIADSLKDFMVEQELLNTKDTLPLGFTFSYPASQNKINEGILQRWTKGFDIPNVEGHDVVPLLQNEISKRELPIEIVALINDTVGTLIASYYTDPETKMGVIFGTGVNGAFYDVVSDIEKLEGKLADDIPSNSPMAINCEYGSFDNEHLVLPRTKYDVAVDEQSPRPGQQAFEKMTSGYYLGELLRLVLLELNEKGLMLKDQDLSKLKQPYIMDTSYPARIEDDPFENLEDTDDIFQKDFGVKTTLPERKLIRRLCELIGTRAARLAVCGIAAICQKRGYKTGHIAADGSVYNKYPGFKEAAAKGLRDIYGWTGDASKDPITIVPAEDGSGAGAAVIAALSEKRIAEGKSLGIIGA
Experiment: Enzyme Inhibition Assay
Details: pH 7.6; 25 °C
Procedure: The assay phosphotransferase activity was followed spectrophotometrically b reduction of NADP in the presence of an excess of glucose-6-phosphate-dehydrogenase (method A). ATPase activity was measured by spectrophotometric measurement of the rate of oxidation of NADH in the presence of phospho-enol-pyruvate, pyruvated-kinase and lactate-dehydrogenase (method B).

Row | SMILES | IC50 [mM]
1 | O=C(N[C@@H]1[C@@H](O)[C@H](O)[C@@H](CO)O[C@H]1O)c1ccccc1 [Glucosamine analog, 1] | 7
2 | Cc1ccccc1C(=O)N[C@@H]1[C@@H](O)[C@H](O)[C@@H](CO)O[C@@H]1O [Glucosamine analog, 2] | 8
3 | CC(=O)Nc1ccccc1C(=O)NC1C(O)OC(CO)C(O)C1O (configuration not stated) [Glucosamine analog, 4] | 18
4 | O=C(NC1C(O)OC(CO)C(O)C1O)c1ccccc1[N+](=O)[O-] (configuration not stated) [Glucosamine analog, 7] | 3
5 | O=C(NC1C(O)OC(CO)C(O)C1O)c1cccc([N+](=O)[O-])c1 (configuration not stated) [Glucosamine analog, 8] | 6
6 | Nc1ccccc1C(=O)NC1C(O)OC(CO)C(O)C1O (configuration not stated) [Glucosamine analog, 9] | 1
7 | Nc1cccc(C(=O)NC2C(O)OC(CO)C(O)C2O)c1 (configuration not stated) [Glucosamine analog, 10] | 6
